Kd data for one molecule are collected here from article PMC6150693 (Journal of the American Chemical Society, 2017).

The assay has as its target T1, SBD2 (Lactococcus lactis, UniProt Q9CES5).
T1 sequence (Q9CES5 253-484 limits assumed): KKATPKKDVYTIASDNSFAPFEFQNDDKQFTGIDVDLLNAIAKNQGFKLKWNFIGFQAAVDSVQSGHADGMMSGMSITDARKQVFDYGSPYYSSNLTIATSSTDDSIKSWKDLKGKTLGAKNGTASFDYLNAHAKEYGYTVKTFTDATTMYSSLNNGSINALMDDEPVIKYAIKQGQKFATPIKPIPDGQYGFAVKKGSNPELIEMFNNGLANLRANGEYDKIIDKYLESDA
Briefly: single-molecule ClyA nanopore current, relative closed population. Format: binding.

With `NC(=O)CC[C@H](N)C(=O)O` [glutamine], the Kd (as a rule, the concentration at which binding is half-saturated) came to 830 ± 100 nM.
